Data as given in patent US8835471B2, “Use of angiotensin II agonists” (Vicore Pharma AB, priority 2010, dated 2014).

What was measured:
[1] = test system: Balb/C mice with spinal cord contusion lesion; assay: Spinal cord contusion injury, locomotor recovery scored with the Basso Mouse Scale (BMS); type: in vivo
Excerpt: In studies of spinal cord injury in mice, the recovery of the mice in the studies may be monitored and quantified using the Basso Mouse Scale (Basso D. M., et al., Journal of Neurotrauma, Volume 23, No. 5, 635-659 (2006), the entirety of which is hereby incorporated by reference). Using this method, each mouse in such studies may be awarded a score based on the criteria outlined in Table 1 and FIG. 1 of Basso et al., supra,
Spinal cord injury and cortical spinal tract (CST) tracing were performed as described in (Boato et al. 2010). […] A gelfoam patch containing 1 μM the compound of Example 1(i) was then placed on top of the perforated dura (only in the second experiment, see Example 3), the muscles were sutured and the back skin closed with wound clips. Recovery of function after SCI was determined by scoring the locomotor hindlimb performance in the open field with the BMS, a 0-9 rating system based on the BBB scale and specifically designed for the mouse (Basso D. M., et al., Journal of Neurotrauma, Volume 23, No. 5, 635-659 (2006)). Under blind conditions, investigator evaluated the mice over a 4-min time period daily. Before surgery, animals were acclimated to the open field and to handling to prevent fear and/or stress behaviours that could bias the locomotor assessment.

[2] = test system: CST nerve fibres of mice with spinal cord injury; assay: Cortical spinal tract tracing (BDA-labelled nerve fibres) after spinal cord injury; type: in vivo, mouse; details: FIG. 4
Description: To anterogradely label the CST, 2 μl of biotinylated dextran amine (10% BDA) were then injected into the motor cortex. BDA-positive CST nerve fibres were visualized by 3,3′-diaminobenzidine staining and counted cranial and caudal to the lesion in serial sections and normalized to the number of labelled fibres in the dorsoventral diameter of the CST in cross sections at T4.
The bars in FIG. 2 represent the percentage of nerve fibres in the area between the end of the CST and the lesion centre (TE-LC) and in the area 0.1, 0.2 or 0.5 mm distal to the lesion centre (0.1, 0.2 or 0.5 mm from LC).
The potential for administration of the compound of Example 1(i) to mice to lead to regeneration of axonal fibres and bridging of the site of injury by reinnervation, following spinal cord injury, was examined. This involved tracking motor neurons by injection of BDA-labelled dextran into the motor cortex.

[3] = test system: BDNF; assay: BDNF mRNA expression by RT-qPCR in murine primary neurons; type: cell-based; details: primary mouse neurons, FIG. 5a
Description: (§1) Primary neurons were isolated from brains of E15 mouse embryos.
(§2) Total RNA from cells was extracted using NucleoSpin RNA II extraction kit including DNAse treatment to digest genomic DNA (Macherey & Nagel, Düren, Germany).
(§3) RNA concentration was measured spectrophotometrically at a wavelength of 260 nm. Purity was assessed by the quotient 260/280 nm.
(§4) 250 ng of cell-derived mRNA were reverse transcribed into complementary DNA using moloney murine leukaemia virus (M-MLV) reverse transcriptase, 5× M-MLV buffer, deoxy-NTPs, random primers and RNasin (reagents from Promega, Mannheim, Germany) at 37° C. for 60 min. In order to control for genomic DNA contaminations, RNA was additionally transcribed in the absence of M-MLV reverse transcriptase (RT minus control).
(§5) To measure gene expression, the transcribed cDNA was amplified by quantitative real-time PCR (Stratagen MX Pro, Agilent Technologies Sales & Services GmbH & Co. KG, Waldbronn, Germany) in a final volume of 25 μl with the specific primers in commercial Power SYBR Green Master Mix (Applied Biosystems, Foster City, USA). Expression values were normalized against 18SrRNA expression.
(§6) All PCR primers were purchased from Operon Biotechnologies (Köln, Germany). […]

[4] = test system: TrkB; assay: TrkB mRNA expression by RT-qPCR in murine primary neurons; type: cell-based; details: primary mouse neurons, FIG. 5b
Description: as §1, §2, §3, §4, §5, §6

[5] = test system: BDNF; assay: BDNF mRNA expression by RT-qPCR in murine primary astrocytes; type: cell-based; details: primary mouse astrocytes, FIG. 6a
Description: as §2, §3, §4, §5, §6

[6] = test system: TrkB; assay: TrkB mRNA expression by RT-qPCR in murine primary astrocytes; type: cell-based; details: primary mouse astrocytes, FIG. 6b
Description: as §2, §3, §4, §5, §6

[7] = test system: TrkB; assay: Immunohistochemical stainings of injured spinal cords for TrkB; type: in vivo, mouse; details: 4 week treatment; area of injury and peri-lesional tissue; versus vehicle; FIG. 7
Excerpt: Animal tissues were fixated by transcardial perfusion with normal saline followed by ice-cold 4% paraformaldehyde in 0.1 M phosphate-buffered saline. After perfusion, spinal cords were dissected and post-fixed overnight in the same fixative. The next day, the tissues were embedded in Jung-Tissue Freezing Medium (Leica Microsystems Nussloh, Germany) and cut longitudinally along the horizontal plane (40 μm thickness) into six series using a freezing microtome.
For immunostaining, samples were preincubated with 10% normal goat serum dissolved in PBS containing 0.5% Triton X-100 for 30 minutes at room temperature (RT). Incubation with primary antibody (Santa Cruz) was carried out overnight at 4° C. Following repeated washing steps with PBS, secondary antibodies (Jackson ImmunoResearch Laboratories) were applied for 2 hours at RT. After removal of unbound antibodies, sections were mounted.
(§7) For measurement of signal intensity six sections per animal containing the lesion center were analyzed. Micrographs were made in 15 rectangular boxes along the spinal cord covering the lesion and surrounding area. Using ImageJ software (NIH) pictures were converted into the 8-Bit greyscale and the signal intensity for each box was evaluated.

[8] = test system: viable neurons at the site of spinal cord injury; assay: Histochemical stainings of injured spinal cords for Nissl (viable neurons); type: in vivo, mouse; details: versus vehicle-treated animals; FIG. 8
Description: Animals were fixated as described above.
For staining of viable neurons the NeuroTrace® 500/525 green fluorescent Nissl stain (Invitrogen) was used. Briefly, after rehydration tissue slices were permeabilized in PBS containing 0.1% Triton X-100 for 10 minutes at room temperature. After washing NeuroTrace solution (100 fold diluted in PBS) was applied to the sections and incubated for 20 minutes at room temperature. After washing, samples were mounted for microscopy.
as §7, with “centre” for “center”, “grayscale” for “greyscale”

| Structure (SMILES) | Basso Mouse Scale score better than vehicle treated mice ([1]; Balb/C mice, treated once daily, versus vehicle, FIG. 1) | neurological deficits (Basso Mouse Score) compared to controls ([1]; Balb/C mice, treated once daily, day 2 and 3 and from day 9 until the end of the study, FIG. 1) | neurological outcome (BMS), difference between routes of administration ([1]; systemically (i.p.) versus gel placed at the site of injury, FIG. 2) | BMS subscore paw position of hindlimbs, recovery ([1]; versus vehicle treated mice, where almost completely absent, FIG. 3) | increase in BMS subscore paw position, statistical significance ([1]; versus vehicle, FIG. 3) | number of BDA-labelled axons (CST nerve fibres) compared to controls [2] | production of mRNA encoding BDNF [3] | production of mRNA encoding TrkB [4] | expression of BDNF ([5]; 10^−6M) | expression of TrkB ([6]; 10^−6M) | TrkB immunoreactivity (signal intensity) in spinal cord [7] | Nissl positive cells (viable neurons) at the site of spinal cord injury [8] | effect of AT2R-antagonist on BDNF mRNA increase induced by the compound of Example 1(i) ([3]; combination with Example 1(i)) | effect of AT2R-antagonist on TrkB mRNA increase induced by the compound of Example 1(i) ([4]; combination with Example 1(i)) | effect of co-treatment with AT2R-antagonist on BDNF expression induced by the compound of Example 1(i) ([5]; co-treatment with Example 1(i)) | effect of co-treatment with AT2R-antagonist on TrkB expression induced by the compound of Example 1(i) ([6]; co-treatment with Example 1(i)) |
| --- | --- | --- | --- | --- | --- | --- | --- | --- | --- | --- | --- | --- | --- | --- | --- | --- |
| CCCCOC(=O)NS(=O)(=O)c1sc(CC(C)C)cc1-c1ccc(Cn2ccnc2)cc1 [Example 1(i), N-Butyloxycarbonyl-3-(4-imidazol-1-ylmethylphenyl)-5-iso-butylthiophene-2-sulfonamide] | approximately 1.5 points | significantly reduced neurological deficits | no statistically significant difference | continuous recovery | statistically significant from day 7 until the end of the observational period | significantly increased | significantly increased | significantly increased | induced expression | induced expression | strongly increased | significant increase | – | – | – | – |
| Cc1cc(Cn2cnc3c2C[C@@H](C(=O)O)N(C(=O)C(c2ccccc2)c2ccccc2)C3)ccc1N(C)C [PD123319, reference compound] | – | – | – | – | – | – | – | – | – | – | – | – | completely blocked | completely blocked | abrogated | abrogated |
